# Literature values in patent publication US20040092519A1, “New treatment for hot flashes” (priority 2002, published 2004).
# Key:
# [1] = transdermal; some patients
# [2] = low doses; men and women
SMILES,side effects [1],frequency of hot flashes [2]
Clc1cccc(Cl)c1N=C1NCCN1 [clonidine],"drowsiness, fatigue, and symptoms of low blood pressure",
CC(=O)O[C@]1(C(C)=O)CC[C@H]2[C@@H]3C=C(C)C4=CC(=O)CC[C@]4(C)[C@H]3CC[C@@]21C [megestrol acetate],,reduce the frequency of hot flashes
